{"source": "patent US20230085307A1", "about": "“PYRIDAZINONE COMPOUND AND HERBICIDE” (NISSAN CHEMICAL CORPORATION, priority 2019, published 2023)"}
{"test_system": "late watergrass", "experiment": "Test Example 1: herbicidal activity, application before weed generation under submerged conditions (Table 16, symbol A)", "format": "in vivo, late watergrass (Echinochloa oryzicola)", "settings": "amount of applied herbicide 320 g/ha", "method_in_brief": "(§1)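 Alluvial soil was flooded to 4 cm depth, weed seeds were sown mixed and 2.5-leaf rice seedlings were transplanted. On sowing day, the compound's emulsion, diluted in water to a set dose, was applied to the water surface. Plants grew at 25–30 °C and were scored 0–5 after three weeks.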"}
{"smiles": "COc1cc(F)ccc1-c1sc2cc(Cl)ccc2c1-c1c(O)c(C)nn(C)c1=O", "note": "[3-043]", "Herbicidal effect, A: late watergrass": "0 (Herbicidal rate of 5% or less (almost no effect))"}
{"smiles": "CCCOc1ccc2c(-c3c(O)c(C)nn(C)c3=O)c(-c3ccccc3OC)sc2c1", "note": "[3-099]", "Herbicidal effect, A: late watergrass": "5 (Herbicidal rate of 90% or more (almost completely withered))"}
{"test_system": "barnyard grass", "experiment": "Test Example 3: herbicidal effect by foliage application, Wagner pot (Table 18, symbol H)", "format": "in vivo, barnyard grass (Echinochloa crus-galli)", "settings": "320 g/ha", "method_in_brief": "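Plants were sown in alluvial soil held under 0.1–0.5 cm standing water and grown 14 days in a greenhouse at 25–30 °C. An emulsifiable formulation, water-diluted to the set dose, was then sprayed onto the foliage, and effects were scored three weeks later using previously defined criteria.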"}
{"smiles": "COc1cc(F)ccc1-c1sc2cc(Cl)ccc2c1-c1c(O)c(C)nn(C)c1=O", "note": "[3-043]", "herbicidal effect on barnyard grass (H)": "5 (Herbicidal rate of 90% or more (almost completely withered))"}
{"smiles": "CCCOc1ccc2c(-c3c(O)c(C)nn(C)c3=O)c(-c3ccccc3OC)sc2c1", "note": "[3-099]", "herbicidal effect on barnyard grass (H)": "5 (Herbicidal rate of 90% or more (almost completely withered))"}
{"test_system": "wild oat", "experiment": "Test Example 5: herbicidal effect by foliage application, plastic box (Table 20, symbol I)", "format": "in vivo, wild oat (Avena fatua)", "settings": "foliage application, 320 g/ha, three weeks after application", "method_in_brief": "(§2)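 Sow seeds spot-wise in sterilized diluvial soil; cover with ~1.5 cm soil. Grow 14 days in greenhouse, 25° C. to 30° C. Spray foliage with emulsion diluted to predetermined amount. Rate effect after 3 weeks.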"}
{"smiles": "COc1cc(F)ccc1-c1sc2cc(Cl)ccc2c1-c1c(O)c(C)nn(C)c1=O", "note": "[3-043]", "I: wild oat, herbicidal effect grade": "4 (Herbicidal rate of 70% or more and less than 90%)"}
{"smiles": "CCCOc1ccc2c(-c3c(O)c(C)nn(C)c3=O)c(-c3ccccc3OC)sc2c1", "note": "[3-099]", "I: wild oat, herbicidal effect grade": "2 (Herbicidal rate of 20% or more and less than 40%)"}
{"test_system": "blackgrass", "experiment": "Test Example 4: herbicidal effect by soil treatment (Table 19, symbol J)", "format": "in vivo, blackgrass (Alopecurus myosuroides)", "settings": "amount of applied herbicide 320 g/ha", "method_in_brief": "(§3)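 Applied as a water-diluted emulsion, the compound was sprayed onto soil covering newly sown seeds. Evaluation came three weeks after application, in a greenhouse held at 25° C. to 30° C.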"}
{"smiles": "COc1cc(F)ccc1-c1sc2cc(Cl)ccc2c1-c1c(O)c(C)nn(C)c1=O", "note": "[3-043]", "J: blackgrass, herbicidal effect grade": "3 (Herbicidal rate of 40% or more and less than 70%)"}
{"smiles": "CCCOc1ccc2c(-c3c(O)c(C)nn(C)c3=O)c(-c3ccccc3OC)sc2c1", "note": "[3-099]", "J: blackgrass, herbicidal effect grade": "4 (Herbicidal rate of 70% or more and less than 90%)"}
{"test_system": "southern crabgrass", "experiment": "Test Example 5: herbicidal effect by foliage application, plastic box (Table 20, symbol F)", "format": "in vivo, southern crabgrass (Digitaria ciliaris)", "settings": "foliage application, 320 g/ha, three weeks after application", "method_in_brief": "as §2"}
{"smiles": "COc1cc(F)ccc1-c1sc2cc(Cl)ccc2c1-c1c(O)c(C)nn(C)c1=O", "note": "[3-043]", "F: southern crabgrass, herbicidal effect grade": "0 (Herbicidal rate of 5% or less (almost no effect))"}
{"smiles": "CCCOc1ccc2c(-c3c(O)c(C)nn(C)c3=O)c(-c3ccccc3OC)sc2c1", "note": "[3-099]", "F: southern crabgrass, herbicidal effect grade": "5 (Herbicidal rate of 90% or more (almost completely withered))"}
{"test_system": "green foxtail", "experiment": "Test Example 5: herbicidal effect by foliage application, plastic box (Table 20, symbol G)", "format": "in vivo, green foxtail (Setaria viridis)", "settings": "foliage application, 320 g/ha, three weeks after application", "method_in_brief": "as §2"}
{"smiles": "COc1cc(F)ccc1-c1sc2cc(Cl)ccc2c1-c1c(O)c(C)nn(C)c1=O", "note": "[3-043]", "G: green foxtail, herbicidal effect grade": "5 (Herbicidal rate of 90% or more (almost completely withered))"}
{"smiles": "CCCOc1ccc2c(-c3c(O)c(C)nn(C)c3=O)c(-c3ccccc3OC)sc2c1", "note": "[3-099]", "G: green foxtail, herbicidal effect grade": "5 (Herbicidal rate of 90% or more (almost completely withered))"}
{"test_system": "persian speedwell", "experiment": "Test Example 5: herbicidal effect by foliage application, plastic box (Table 20, symbol R)", "format": "in vivo, Persian speedwell (Veronica persica)", "settings": "foliage application, 320 g/ha, three weeks after application", "method_in_brief": "as §2"}
{"smiles": "COc1cc(F)ccc1-c1sc2cc(Cl)ccc2c1-c1c(O)c(C)nn(C)c1=O", "note": "[3-043]", "R: persian speedwell, herbicidal effect grade": "5 (Herbicidal rate of 90% or more (almost completely withered))"}
{"smiles": "CCCOc1ccc2c(-c3c(O)c(C)nn(C)c3=O)c(-c3ccccc3OC)sc2c1", "note": "[3-099]", "R: persian speedwell, herbicidal effect grade": "5 (Herbicidal rate of 90% or more (almost completely withered))"}
{"test_system": "redroot pigweed", "experiment": "Test Example 5: herbicidal effect by foliage application, plastic box (Table 20, symbol N)", "format": "in vivo, redroot pigweed (Amaranthus retroflexus)", "settings": "foliage application, 320 g/ha, three weeks after application", "method_in_brief": "as §2"}
{"smiles": "COc1cc(F)ccc1-c1sc2cc(Cl)ccc2c1-c1c(O)c(C)nn(C)c1=O", "note": "[3-043]", "N: redroot pigweed, herbicidal effect grade": "2 (Herbicidal rate of 20% or more and less than 40%)"}
{"smiles": "CCCOc1ccc2c(-c3c(O)c(C)nn(C)c3=O)c(-c3ccccc3OC)sc2c1", "note": "[3-099]", "N: redroot pigweed, herbicidal effect grade": "5 (Herbicidal rate of 90% or more (almost completely withered))"}
{"test_system": "Japanese bulrush", "experiment": "Test Example 1: herbicidal activity, application before weed generation under submerged conditions (Table 16, symbol B)", "format": "in vivo, Japanese bulrush (Schoenoplectus juncoides)", "settings": "amount of applied herbicide 320 g/ha", "method_in_brief": "as §1"}
{"smiles": "COc1cc(F)ccc1-c1sc2cc(Cl)ccc2c1-c1c(O)c(C)nn(C)c1=O", "note": "[3-043]", "Herbicidal effect, B: Japanese bulrush": "1 (Herbicidal rate of 5% or more and less than 20%)"}
{"smiles": "CCCOc1ccc2c(-c3c(O)c(C)nn(C)c3=O)c(-c3ccccc3OC)sc2c1", "note": "[3-099]", "Herbicidal effect, B: Japanese bulrush": "5 (Herbicidal rate of 90% or more (almost completely withered))"}
{"test_system": "barnyard grass", "experiment": "Test Example 4: herbicidal effect by soil treatment (Table 19, symbol H)", "format": "in vivo, barnyard grass (Echinochloa crus-galli)", "settings": "amount of applied herbicide 320 g/ha", "method_in_brief": "as §3"}
{"smiles": "COc1cc(F)ccc1-c1sc2cc(Cl)ccc2c1-c1c(O)c(C)nn(C)c1=O", "note": "[3-043]", "H: barnyard grass, herbicidal effect grade": "4 (Herbicidal rate of 70% or more and less than 90%)"}
{"smiles": "CCCOc1ccc2c(-c3c(O)c(C)nn(C)c3=O)c(-c3ccccc3OC)sc2c1", "note": "[3-099]", "H: barnyard grass, herbicidal effect grade": "4 (Herbicidal rate of 70% or more and less than 90%)"}
{"test_system": "chickweed", "experiment": "Test Example 4: herbicidal effect by soil treatment (Table 19, symbol P)", "format": "in vivo, common chickweed (Stellaria media)", "settings": "amount of applied herbicide 320 g/ha", "method_in_brief": "as §3"}
{"smiles": "COc1cc(F)ccc1-c1sc2cc(Cl)ccc2c1-c1c(O)c(C)nn(C)c1=O", "note": "[3-043]", "P: chickweed, herbicidal effect grade": "4 (Herbicidal rate of 70% or more and less than 90%)"}
{"smiles": "CCCOc1ccc2c(-c3c(O)c(C)nn(C)c3=O)c(-c3ccccc3OC)sc2c1", "note": "[3-099]", "P: chickweed, herbicidal effect grade": "3 (Herbicidal rate of 40% or more and less than 70%)"}
{"test_system": "southern crabgrass", "experiment": "Test Example 4: herbicidal effect by soil treatment (Table 19, symbol F)", "format": "in vivo, southern crabgrass (Digitaria ciliaris)", "settings": "amount of applied herbicide 320 g/ha", "method_in_brief": "as §3"}
{"smiles": "COc1cc(F)ccc1-c1sc2cc(Cl)ccc2c1-c1c(O)c(C)nn(C)c1=O", "note": "[3-043]", "F: southern crabgrass, herbicidal effect grade": "0 (Herbicidal rate of 5% or less (almost no effect))"}
{"smiles": "CCCOc1ccc2c(-c3c(O)c(C)nn(C)c3=O)c(-c3ccccc3OC)sc2c1", "note": "[3-099]", "F: southern crabgrass, herbicidal effect grade": "5 (Herbicidal rate of 90% or more (almost completely withered))"}
{"test_system": "late watergrass", "experiment": "Test Example 2: herbicidal activity, application during weed generation under submerged conditions (Table 17, symbol A)", "format": "in vivo, late watergrass (Echinochloa oryzicola)", "settings": "AAH 320 g/ha; application during weed generation, submerged conditions", "method_in_brief": "(§4)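 Wagner pot, alluvial soil, 4 cm flood; mixed sowing of all species; greenhouse 25° C.–30° C. Emulsifiable formulation, water-diluted to predetermined dose, applied to paddy water at 1–2 leaf stage. Effect rated at 3 wk using the earlier test's scoring criteria.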"}
{"smiles": "COc1cc(F)ccc1-c1sc2cc(Cl)ccc2c1-c1c(O)c(C)nn(C)c1=O", "note": "[3-043]", "herbicidal effect rating, A: late watergrass": "3 (Herbicidal rate of 40% or more and less than 70%)"}
{"smiles": "CCCOc1ccc2c(-c3c(O)c(C)nn(C)c3=O)c(-c3ccccc3OC)sc2c1", "note": "[3-099]", "herbicidal effect rating, A: late watergrass": "3 (Herbicidal rate of 40% or more and less than 70%)"}
{"test_system": "lambsquarters", "experiment": "Test Example 5: herbicidal effect by foliage application, plastic box (Table 20, symbol O)", "format": "in vivo, lambsquarters (Chenopodium album)", "settings": "foliage application, 320 g/ha, three weeks after application", "method_in_brief": "as §2"}
{"smiles": "COc1cc(F)ccc1-c1sc2cc(Cl)ccc2c1-c1c(O)c(C)nn(C)c1=O", "note": "[3-043]", "O: lambsquarters, herbicidal effect grade": "4 (Herbicidal rate of 70% or more and less than 90%)"}
{"smiles": "CCCOc1ccc2c(-c3c(O)c(C)nn(C)c3=O)c(-c3ccccc3OC)sc2c1", "note": "[3-099]", "O: lambsquarters, herbicidal effect grade": "5 (Herbicidal rate of 90% or more (almost completely withered))"}
{"test_system": "oval-leafed pondweed", "experiment": "Test Example 2: herbicidal activity, application during weed generation under submerged conditions (Table 17, symbol C)", "format": "in vivo, oval-leafed pondweed (Monochoria vaginalis)", "settings": "AAH 320 g/ha; application during weed generation, submerged conditions", "method_in_brief": "as §4"}
{"smiles": "COc1cc(F)ccc1-c1sc2cc(Cl)ccc2c1-c1c(O)c(C)nn(C)c1=O", "note": "[3-043]", "herbicidal effect rating, C: oval-leafed pondweed": "0 (Herbicidal rate of 5% or less (almost no effect))"}
{"smiles": "CCCOc1ccc2c(-c3c(O)c(C)nn(C)c3=O)c(-c3ccccc3OC)sc2c1", "note": "[3-099]", "herbicidal effect rating, C: oval-leafed pondweed": "3 (Herbicidal rate of 40% or more and less than 70%)"}
{"test_system": "windgrass", "experiment": "Test Example 5: herbicidal effect by foliage application, plastic box (Table 20, symbol L)", "format": "in vivo, windgrass (Apera spica-venti)", "settings": "foliage application, 320 g/ha, three weeks after application", "method_in_brief": "as §2"}
{"smiles": "COc1cc(F)ccc1-c1sc2cc(Cl)ccc2c1-c1c(O)c(C)nn(C)c1=O", "note": "[3-043]", "L: windgrass, herbicidal effect grade": "5 (Herbicidal rate of 90% or more (almost completely withered))"}
{"smiles": "CCCOc1ccc2c(-c3c(O)c(C)nn(C)c3=O)c(-c3ccccc3OC)sc2c1", "note": "[3-099]", "L: windgrass, herbicidal effect grade": "5 (Herbicidal rate of 90% or more (almost completely withered))"}
